In US11104690B2, “Indazole derivatives useful as inhibitors of diacylglyceride O-acyltransferase 2” (Merck Sharp & Dohme Corp., priority 2016, dated 2021):

What follows are compounds tested against Human DGAT2 (Homo sapiens (Human), UniProt Q96PD7) (assay: DGAT2 Enzymatic Activity Assay (triolein formation, LC/MS/MS)). Settings: hDGAT2 Sf-9 membrane prep; 25 μM diolein, 10 μM oleoyl-CoA; room temperature.
Format: biochemical
Method: Sf-9 insect cells were maintained in Grace's insect cell culture medium with 10% heated-inactivated fetal bovine serum, 1% Pluronic F-68 and 0.14 μg/m Kanamycine sulfate in Erlenmeyer flasks at 28° C. in a shaker incubator. After infection with untagged hDGAT2 baculovirus at multiplicity of infection (MOI) 0.1 for 48 hours, cells were harvested. Cell pellets were suspended in buffer containing 10 mM Tris-HC (pH 7.5), 1 mM EDTA (pH 8.0), 250 mM sucrose and Complete Protease Inhibitor Cocktail (Roche Diagnostics Corp., Indianapolis, Ill.), and sonicated on ice. Membrane fractions were isolated by ultracentrifugation (100,000×g pellet), resuspended in the same buffer, and frozen (−80° C.) for later use. The protein concentration was determined with the BCA Protein Assay kit (Pierce Biotechnology Inc., Rockford, Ill.). Expression of protein levels was analyzed by immunoblotting with goat polyclonal DGAT2 antibody C-15 and donkey anti-goat IgG HRP (Santa Cruz Biotechnology, Inc., Santa Cruz, Calif.) followed by detection with ECL reagent (GE Healthcare, Piscataway, N.J.).
LC/MS/MS analyses were performed using Thermal Fisher's LX4-TSQ Vantage system. This system consists of an Agilent binary high-performance liquid chromatography (HPLC) pumps and a TSQ Vantage triple quadrupole MS/MS instrument. For each sample, 2 μL samples from the top organic layer of in-plate liquid-liquid extraction were injected onto a Thermo Betabasic C4 column (2.1 mm×20 mm, 5 μm particle size). The samples were then eluted using the following conditions; mobile phase: MeOH/water with 0.1% ammonium format=92/8 (v/v), flow rate: 1 mL/min, temperature: 25 C. Data was acquired in positive mode using a heated electrospray ionization (HESI) interface. The operational parameters for the TSQ Vantage MS/MS instrument were a spray voltage of 3000 V, capillary temperature of 280° C., vaporizer temperature 400° C., shealth gas 60 arbitrary unit, Aux gas 40 arbitrary units, S-lens 113 and collision gas 0.16 Pascals. […] (SRM) chromatograms of triolein (Q1: 902.9>Q3:602.3) and internal standard ([…]) were collected for 40 sec. The peak area was integrated by Xcalibur Quan software. The ratio between the triolein generated in the reaction and spiked in internal standard was used to generate percentage inhibition and IC50 values. Compound percentage inhibition was calculated by the following formula: Inhibition %=1−[(compound response−low control)/(high control−low control)]×100%. Potent compounds were titrated and IC50 were calculated by 4 parameter sigmoidal curve fitting formula.
DGAT2 activity was determined by measuring the amount of enzymatic product triolein (1,2,3-Tri(cis-9-octadecenoyl)glycerol) using the membrane prep mentioned above. The assay was carried out in deep well 384 plates in a final volume of 40 μL at room temperature. The assay mixture contained the following: assay buffer (100 mM Tris.Cl, pH 7.0, 20 mM MgCl2, 5% ethanol), 25 μM of diolein, 10 μM of oleoyl-CoA and 10 ng/μL of DGAT2 membrane.

Sequence of Human DGAT2 (Q96PD7 whole entry): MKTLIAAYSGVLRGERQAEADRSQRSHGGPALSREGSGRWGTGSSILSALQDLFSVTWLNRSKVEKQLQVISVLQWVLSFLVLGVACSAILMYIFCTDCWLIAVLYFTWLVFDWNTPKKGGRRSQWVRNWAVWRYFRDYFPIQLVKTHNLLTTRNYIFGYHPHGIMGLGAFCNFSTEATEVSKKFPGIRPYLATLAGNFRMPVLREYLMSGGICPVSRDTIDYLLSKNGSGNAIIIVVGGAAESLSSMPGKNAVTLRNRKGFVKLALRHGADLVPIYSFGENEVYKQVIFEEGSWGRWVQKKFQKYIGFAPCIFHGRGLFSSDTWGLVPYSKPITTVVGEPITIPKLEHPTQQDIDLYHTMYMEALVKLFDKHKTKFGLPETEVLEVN

Row | IC50 | Compound
1 | 686 nM | CN1CCC(NC(=O)c2ccc3c(-c4ccccc4Cl)nn(-c4ccc(F)cc4)c3c2)C1=O (racemic) [Example 6, 3-(2-chlorophenyl)-1-(4-fluorophenyl)-N-(1-methyl-2-oxopyrrolidin-3-yl)-1H-indazole-6-carboxamide]
2 | 78 nM | CC(NC(=O)c1ccc2c(-c3ccccc3Cl)nn(-c3ccc(F)cc3)c2c1)c1c[nH]cn1 (racemic) [Example 14, 3-(2-chlorophenyl)-1-(4-fluorophenyl)-N-[1-(1H-imidazol-4-yl)ethyl]-1H-indazole-6-carboxamide]
3 | 102 nM | CN1CC(NC(=O)c2ccc3c(-c4ccccc4Cl)nn(-c4ccc(F)cc4)c3c2)CC1=O (racemic) [Example 22, 3-(2-chlorophenyl)-1-(4-fluorophenyl)-N-(1-methyl-5-oxopyrrolidin-3-yl)-1H-indazole-6-carboxamide]
4 | 65 nM | O=C(NCC1CCS(=O)(=O)C1)c1ccc2c(-c3ccccc3Cl)nn(-c3ccc(F)cc3)c2c1 (racemic) [Example 29, 3-(2-chlorophenyl)-N-[(1,1-dioxidotetrahydrothiophen-3-yl)methyl]-1-(4-fluorophenyl)-1H-indazole-6-carboxamide]
5 | 413 nM | O=C(NC1CCNC1=O)c1ccc2c(-c3ccccc3Cl)nn(-c3ccc(F)cc3)c2c1 (racemic) [Example 52, 3-(2-chlorophenyl)-1-(4-fluorophenyl)-N-(2-oxopyrrolidin-3-yl)-1H-indazole-6-carboxamide]
6 | 669 nM | O=C1CC(NC(=O)c2ccc3c(-c4ccccc4Cl)nn(-c4ccc(F)cc4)c3c2)C(=O)N1 (racemic) [Example 57, 3-(2-chlorophenyl)-N-(2,5-dioxopyrrolidin-3-yl)-1-(4-fluorophenyl)-1H-indazole-6-carboxamide]
7 | 461 nM | COC(=O)C1(NC(=O)c2ccc3c(-c4ccccc4Cl)nn(-c4ccc(F)cc4)c3c2)CCSC1 (racemic) [Example 59, methyl 3-({[3-(2-chlorophenyl)-1-(4-fluorophenyl)-1H-indazol-6-yl]carbonyl}amino)tetra-hydrothiophene-3-carboxylate]

More lines, now with the values behind:

Row | Compound | IC50
8 | CC(NC(=O)c1ccc2c(-c3ccccc3Cl)nn(-c3ccc(F)cc3)c2c1)c1cn(C(=O)OC(C)(C)C)cn1 (racemic) [Example 7, tert-butyl 4-[1-({[3-(2-chlorophenyl)-1-(4-fluorophenyl)-1H-indazol-6-yl]carbonyl}amino)ethyl]-1H-imidazole-1-carboxylate] | 164 nM
9 | Cc1n[nH]c(C)c1C(C)NC(=O)c1ccc2c(-c3ccccc3Cl)nn(-c3ccc(F)cc3)c2c1 (racemic) [Example 17, 3-(2-chlorophenyl)-N-[1-(3,5-dimethyl-1H-pyrazol-4-yl)ethyl]-1-(4-fluorophenyl)-1H-indazole-6-carboxamide] | 83 nM
10 | O=C(c1ccc2c(-c3ccccc3Cl)nn(-c3ccc(F)cc3)c2c1)N1CC2CC1CS(=O)(=O)C2 (racemic) [Example 23, 3-(2-chlorophenyl)-6-[(3,3-dioxido-3-thia-6-azabicyclo[3.2.1]oct-6-yl)carbonyl]-1-(4-fluorophenyl)-1H-indazole] | 403 nM
11 | CC(c1cc(-c2ccccc2)[nH]n1)N(C)C(=O)c1ccc2c(-c3ccccc3Cl)nn(-c3ccc(F)cc3)c2c1 (racemic) [Example 27, 3-(2-chlorophenyl)-1-(4-fluorophenyl)-N-methyl-N-[1-(5-phenyl-1H-pyrazol-3-yl)ethyl]-1H-indazole-6-carboxamide] | 301 nM
12 | CC(NC(=O)c1ccc2c(-c3ccccc3Cl)nn(-c3ccc(F)cc3)c2c1)c1nncn1C (racemic) [Example 36, 3-(2-chlorophenyl)-1-(4-fluorophenyl)-N-[1-(4-methyl-4H-1,2,4-triazol-3-yl)ethyl]-1H-indazole-6-carboxamide] | 889 nM
13 | Cc1nc(C(C)NC(=O)c2ccc3c(-c4ccccc4Cl)nn(-c4ccc(F)cc4)c3c2)no1 (racemic) [Example 41, 3-(2-chlorophenyl)-1-(4-fluorophenyl)-N-[1-(5-methyl-1,2,4-oxadiazol-3-yl)ethyl]-1H-indazole-6-carboxamide] | 519 nM
